Data published in ChEMBL document CHEMBL3046900, “Synthesis and Fungitoxic Activity of N-Cinnamoyl--Amino Acid Esters” (2000).

Key:
Assay type in all cases: functional
[1] = tested on: Pythium; assay: Fungitoxic activity against Pythium sp. assessed as mycelial growth inhibition at 100 ppm after 3 days; details: 72 h, read-out: GI
[2] = tested on: Athelia rolfsii; assay: Fungitoxic activity against Athelia rolfsii assessed as mycelial growth inhibition at 100 ppm after 3 days; details: Agroathelia rolfsii, 72 h; read-out: GI
[3] = tested on: Pythium; assay: Fungitoxic activity against Pythium sp. assessed as mycelial growth inhibition at 10 ppm after 3 days; details: 72 h, read-out: GI
[4] = tested on: Athelia rolfsii; assay: Fungitoxic activity against Athelia rolfsii assessed as mycelial growth inhibition at 10 ppm after 3 days; details: Agroathelia rolfsii, 72 h; read-out: GI

SMILES | inhibition of growth at 100 ppm [1] [%] | inhibition of growth at 100 ppm [2] [%] | inhibition of growth at 10 ppm [3] [%] | inhibition of growth at 10 ppm [4] [%]
CCOC(=O)[C@@H](NC(=O)/C=C/c1ccccc1)C(C)C | 41 | 41 |  | 
CCCOC(=O)[C@H](C)NC(=O)/C=C/c1ccc(Cl)cc1 | 21 | 38 |  | 
COC(=O)[C@H](CC(C)C)NC(=O)/C=C/c1ccc(C(C)C)cc1 | 60 | 35 | 6 | 
CCOC(=O)[C@H](Cc1ccccc1)NC(=O)/C=C/c1ccc(Cl)cc1 | 15 | 22 |  | 
CCOC(=O)[C@@H](NC(=O)/C=C/c1ccc(C(C)C)cc1)C(C)C | 67 | 51 | 10 | 27
COC(=O)[C@H](C)NC(=O)/C=C/c1ccc(Cl)cc1 | 26 | 44 |  | 
CCCOC/C(=N\c1ccc(Cl)cc1C(F)(F)F)n1ccnc1 [TRIFLUMIZOLE] | 94 | 100 | 71 | 64
CC(C)C[C@H](NC(=O)/C=C/c1ccc(C(C)C)cc1)C(=O)OC(C)C | 53 | 56 | 25 | 35
COC(=O)[C@H](Cc1ccccc1)NC(=O)/C=C/c1ccccc1 | 37 | 49 |  | 
CCCOC(=O)CNC(=O)/C=C/c1ccc(Cl)cc1Cl | 40 | 28 |  | 
CCOC(=O)[C@@H](NC(=O)/C=C/c1ccc(Cl)cc1Cl)C(C)C | 68 | 47 | 19 | 
COC(=O)[C@H](Cc1ccccc1)NC(=O)/C=C/c1ccc(Cl)cc1Cl | 38 | 46 |  | 
COC(=O)[C@H](C)NC(=O)/C=C/c1ccccc1 | 13 | 25 |  | 
CC[C@H](C)[C@H](NC(=O)/C=C/c1ccc(C(C)C)cc1)C(=O)OC | 65 | 55 | 26 | 41
CCOC(=O)[C@H](Cc1ccccc1)NC(=O)/C=C/c1ccccc1 | 26 | 62 |  | 27
CCCOC(=O)[C@H](CC(C)C)NC(=O)/C=C/c1ccc(Cl)cc1Cl | 38 | 33 |  | 
COC(=O)[C@H](CC(C)C)NC(=O)/C=C/c1ccc(Cl)cc1 | 32 | 50 |  | 
CCOC(=O)[C@H](CC(C)C)NC(=O)/C=C/c1ccc(Cl)cc1 | 22 | 53 |  | 16
COC(=O)[C@H](Cc1ccccc1)NC(=O)/C=C/c1ccc(C(C)C)cc1 | 57 | 52 | 8 | 28
COC(=O)[C@H](CC(C)C)NC(=O)/C=C/c1ccccc1 | 23 | 30 |  | 

SMILES | inhibition of growth at 100 ppm [1] [%] | inhibition of growth at 100 ppm [2] [%] | inhibition of growth at 10 ppm [3] [%] | inhibition of growth at 10 ppm [4] [%]
COC(=O)[C@@H](NC(=O)/C=C/c1ccc(Cl)cc1)C(C)C | 52 | 53 | 0 | 20
CCCOC(=O)CNC(=O)/C=C/c1ccccc1 [PROPYL 2-CINNAMAMIDOACETATE] | 47 | 53 |  | 26
CCOC(=O)[C@H](CC(C)C)NC(=O)/C=C/c1ccc(Cl)cc1Cl | 30 | 34 |  | 
CCOC(=O)[C@H](CC(C)C)NC(=O)/C=C/c1ccc(C(C)C)cc1 | 44 | 43 |  | 
CCCOC(=O)CNC(=O)/C=C/c1ccc(C(C)C)cc1 | 63 | 74 | 24 | 23
CC(C)OC(=O)CNC(=O)/C=C/c1ccccc1 [ISOPROPYL 2-CINNAMAMIDOACETATE] | 42 | 61 |  | 15
CCOC(=O)[C@H](C)NC(=O)/C=C/c1ccc(Cl)cc1Cl | 55 | 52 | 0 | 12
CC[C@H](C)[C@H](NC(=O)/C=C/c1ccc(Cl)cc1)C(=O)OC | 51 | 65 | 0 | 20
CCOC(=O)[C@H](C)NC(=O)/C=C/c1ccccc1 | 21 | 14 |  | 
CCCOC(=O)[C@H](CC(C)C)NC(=O)/C=C/c1ccc(C(C)C)cc1 | 43 | 46 |  | 
CCCOC(=O)[C@H](C)NC(=O)/C=C/c1ccc(Cl)cc1Cl | 61 | 51 | 0 | 14
COC(=O)[C@@H](NC(=O)/C=C/c1ccccc1)C(C)C | 33 | 29 |  | 
CCCOC(=O)[C@H](CC(C)C)NC(=O)/C=C/c1ccccc1 | 31 | 45 |  | 
CC(C)OC(=O)CNC(=O)/C=C/c1ccc(C(C)C)cc1 | 70 | 79 | 11 | 37
CC[C@H](C)[C@H](NC(=O)/C=C/c1ccccc1)C(=O)OC | 39 | 33 |  | 
CC(C)C[C@H](NC(=O)/C=C/c1ccccc1)C(=O)OC(C)C | 34 | 41 |  | 
CCOC(=O)[C@H](CC(C)C)NC(=O)/C=C/c1ccccc1 | 16 | 40 |  | 
CCOC(=O)[C@@H](NC(=O)/C=C/c1ccc(C(C)C)cc1)[C@@H](C)CC | 57 | 45 | 23 | 
COC(=O)[C@@H](NC(=O)/C=C/c1ccc(Cl)cc1Cl)C(C)C | 67 | 63 | 10 | 24
COC(=O)[C@H](CC(C)C)NC(=O)/C=C/c1ccc(Cl)cc1Cl | 55 | 42 | 12 | 

SMILES | inhibition of growth at 100 ppm [1] [%] | inhibition of growth at 100 ppm [2] [%] | inhibition of growth at 10 ppm [3] [%] | inhibition of growth at 10 ppm [4] [%]
CCCOC(=O)CNC(=O)/C=C/c1ccc(Cl)cc1 | 48 | 56 |  | 35
CC(C)C[C@H](NC(=O)/C=C/c1ccc(Cl)cc1)C(=O)OC(C)C | 70 | 89 | 7 | 32
CCOC(=O)[C@@H](NC(=O)/C=C/c1ccc(Cl)cc1Cl)[C@@H](C)CC | 52 | 47 | 20 | 
CC(C)OC(=O)CNC(=O)/C=C/c1ccc(Cl)cc1 | 57 | 50 | 0 | 41
CCOC(=O)[C@@H](NC(=O)/C=C/c1ccccc1)[C@@H](C)CC | 49 | 30 |  | 
CCOC(=O)[C@@H](NC(=O)/C=C/c1ccc(Cl)cc1)[C@@H](C)CC | 58 | 50 | 0 | 42
CC(C)C[C@H](NC(=O)/C=C/c1ccc(Cl)cc1Cl)C(=O)OC(C)C | 42 | 39 |  | 
CCCOC(=O)[C@H](C)NC(=O)/C=C/c1ccc(C(C)C)cc1 | 52 | 53 | 4 | 20
CCOC(=O)[C@H](C)NC(=O)/C=C/c1ccc(Cl)cc1 | 27 | 47 |  | 
CC[C@H](C)[C@H](NC(=O)/C=C/c1ccc(Cl)cc1Cl)C(=O)OC | 59 | 48 | 18 | 
CCOC(=O)[C@@H](NC(=O)/C=C/c1ccc(Cl)cc1)C(C)C | 54 | 47 |  | 
CC(C)OC(=O)CNC(=O)/C=C/c1ccc(Cl)cc1Cl | 70 | 94 | 9 | 38
CCOC(=O)[C@H](C)NC(=O)/C=C/c1ccc(C(C)C)cc1 | 63 | 60 | 0 | 27
CCOC(=O)[C@H](Cc1ccccc1)NC(=O)/C=C/c1ccc(Cl)cc1Cl | 18 | 35 |  | 
COC(=O)[C@H](Cc1ccccc1)NC(=O)/C=C/c1ccc(Cl)cc1 | 13 | 47 |  | 
CCCOC(=O)[C@H](CC(C)C)NC(=O)/C=C/c1ccc(Cl)cc1 | 38 | 56 |  | 25
CCOC(=O)[C@H](Cc1ccccc1)NC(=O)/C=C/c1ccc(C(C)C)cc1 | 20 | 18 |  | 
COC(=O)[C@H](C)NC(=O)/C=C/c1ccc(C(C)C)cc1 | 52 | 67 |  | 
COC(=O)[C@H](C)NC(=O)/C=C/c1ccc(Cl)cc1Cl | 55 | 49 |  | 
CCCOC(=O)[C@H](C)NC(=O)/C=C/c1ccccc1 | 33 | 48 |  | 
